Measured values taken from PubChem BioAssay AID192 (DTP/NCI, 2004).
Several values for one entry are separate records, joined by “and”; a condition that tells them apart may be missing. Identical values can stand only once. Inconclusive results and toxic doses are left out.

Test system: BDF1 mice, B16 melanoma ip, median survival T/C
Test: NCI In Vivo Anticancer Drug Screen. Data for tumor model B16 Melanoma (intraperitoneal) in B6D2F1 (BDF1) mice
Details: endpoint: median survival time, higher = longer survival
In short: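 Compounds were tested in mice carrying transplantable tumors. Survival or tumor size was recorded, and each value is the treated-group measurement (T) divided by that of the vehicle-treated control group (C).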

[1] = dose: 50.0 mg/kg/injection, schedule: Q01DX009 (ip), vehicle: saline with Tween-80
[2] = dose: 100.0 mg/kg/injection, schedule: Q01DX009 (ip), vehicle: saline with Tween-80
[3] = dose: 200.0 mg/kg/injection, schedule: Q01DX009 (ip), vehicle: saline with Tween-80
[4] = dose: 100.0 mg/kg/injection, schedule: Q04DX003 (ip), vehicle: saline with Tween-80
[5] = dose: 200.0 mg/kg/injection, schedule: Q04DX003 (ip), vehicle: saline with Tween-80
[6] = dose: 400.0 mg/kg/injection, schedule: Q04DX003 (ip), vehicle: saline with Tween-80
[7] = dose: 100.0 mg/kg/injection, schedule: Q01DX009 (ip), vehicle: Klucel (hydroxypropylcellulose) (HPC)
[8] = dose: 200.0 mg/kg/injection, schedule: Q01DX009 (ip), vehicle: Klucel (hydroxypropylcellulose) (HPC)

Q: How did the T/C (dose: 10.0 mg/kg/injection, schedule: Q02DX009 (ip), vehicle: Klucel (hydroxypropylcellulose) (HPC)) turn out when `C[C@]12C=CC(=O)C=C1CC[C@@H]1[C@@H]2[C@@H](O)C[C@@]2(C)[C@H]1CC[C@]2(O)C(=O)CO` was run?
A: 91 % of control

Q: What about the T/C (dose: 20.0 mg/kg/injection, schedule: Q02DX009 (ip), vehicle: Klucel (hydroxypropylcellulose) (HPC)) of the same compound?
A: 100 % of control

Q: What about the T/C (dose: 40.0 mg/kg/injection, schedule: Q02DX009 (ip), vehicle: Klucel (hydroxypropylcellulose) (HPC)) of the same compound?
A: 96 % of control

Q: What about the T/C (dose: 80.0 mg/kg/injection, schedule: Q02DX009 (ip), vehicle: Klucel (hydroxypropylcellulose) (HPC)) of the same compound?
A: 103 % of control

Q: What about the T/C (dose: 160.0 mg/kg/injection, schedule: Q02DX009 (ip), vehicle: Klucel (hydroxypropylcellulose) (HPC)) of the same compound?
A: 109 % of control and 115 % of control

Q: And the T/C (dose: 320.0 mg/kg/injection, schedule: Q02DX009 (ip), vehicle: Klucel (hydroxypropylcellulose) (HPC))?
A: 92 % of control

Q: Which results are given for `C[n+]1c2ccccc2cc2ccccc21`?
A: T/C (dose: 1.56 mg/kg/injection, schedule: Q01DX009 (ip), vehicle: saline with Tween-80): 97 % of control; T/C (dose: 6.25 mg/kg/injection, schedule: Q01DX009 (ip), vehicle: saline with Tween-80): 90 % of control and 94 % of control

Q: With `CCC[CH2][Sn]([CH2]CCC)[CH2]CCC.CCC[CH2][Sn]([CH2]CCC)[CH2]CCC` as the compound, how does the T/C (dose: 5.0 mg/kg/injection, schedule: Q01DX009 (ip), vehicle: Klucel (hydroxypropylcellulose) (HPC)) read?
A: 109 % of control

Q: For `COC(=O)C(Br)C1CCCCC1` (stereo not given), which T/C [1] is on record?
A: 100 % of control

Q: What about the T/C [2] of the same compound?
A: 103 % of control

Q: And the T/C [3]?
A: 99 % of control

Q: `Nc1ccn(C2OC(CO)C(O)C2O)c(=O)n1` (stereo not given) was tested. Which T/C (dose: 6.25 mg/kg/injection, schedule: Q01DX009 (ip), vehicle: saline) did it give?
A: 120 % of control

Q: And the T/C (dose: 25.0 mg/kg/injection, schedule: Q01DX009 (ip), vehicle: saline)?
A: 98 % of control

Q: And the T/C (dose: 80.0 mg/kg/injection, schedule: Q01DX009 (ip), vehicle: saline)?
A: 71 % of control

Q: What about the T/C (dose: 100.0 mg/kg/injection, schedule: Q01DX009 (ip), vehicle: saline) of the same compound?
A: 97 % of control

Q: And the T/C [4]?
A: 100 % of control

Q: And the T/C (dose: 200.0 mg/kg/injection, schedule: Q01DX009 (ip), vehicle: saline)?
A: 94 % of control

Q: What about the T/C [5] of the same compound?
A: 92 % of control

Q: What about the T/C (dose: 250.0 mg/kg/injection, schedule: Q04DX009 (ip), vehicle: saline) of the same compound?
A: 100 % of control

Q: And the T/C [6]?
A: 92 % of control

Q: How did the T/C [1] turn out when `CCC1CN1P(=O)(N(CC)CC)N1CC1CC` (stereo not given) was run?
A: 113 % of control

Q: What about the T/C [2] of the same compound?
A: 117 % of control

Q: What does the source list for `O=C(/C=C/C(=O)Oc1ccc(Cl)cc1)Oc1ccc(Cl)cc1`?
A: T/C [7]: 94 % of control; T/C [8]: 94 % of control

Q: For `OC(COc1ccccc1)CN1CCCCC1` (stereo not given), which T/C [2] is on record?
A: 112 % of control

Q: And the T/C [3]?
A: 102 % of control

Q: What about the T/C (dose: 400.0 mg/kg/injection, schedule: Q01DX009 (ip), vehicle: saline with Tween-80) of the same compound?
A: 114 % of control

Q: What does the source list for `COCc1ccc(COC)cc1`?
A: T/C (dose: 100.0 mg/kg/injection, schedule: Q04DX003 (ip), vehicle: saline): 102 % of control; T/C (dose: 200.0 mg/kg/injection, schedule: Q04DX003 (ip), vehicle: saline): 102 % of control; T/C (dose: 400.0 mg/kg/injection, schedule: Q04DX003 (ip), vehicle: saline): 100 % of control

Q: Which T/C (dose: 4.0 mg/kg/injection, schedule: Q01DX009 (ip), vehicle: acid diluted with saline) does the source give for `NCCNc1ccc(NCCN)c2c1C(=O)c1ccccc1C2=O` here?
A: 210 % of control

Q: And the T/C (dose: 8.0 mg/kg/injection, schedule: Q01DX009 (ip), vehicle: acid diluted with saline)?
A: 218 % of control

Q: For `BrC[P+](CBr)(CBr)CBr`, which T/C (dose: 12.5 mg/kg/injection, schedule: Q01DX009 (ip), vehicle: saline with Tween-80) is on record?
A: 100 % of control

Q: And the T/C (dose: 25.0 mg/kg/injection, schedule: Q01DX009 (ip), vehicle: saline with Tween-80)?
A: 105 % of control

Q: And the T/C [1]?
A: 104 % of control

Q: What about the T/C [2] of the same compound?
A: 89 % of control

Q: Which results are given for `NC(=O)N1c2ccccc2C=Cc2ccccc21`?
A: T/C (dose: 12.5 mg/kg/injection, schedule: Q01DX009 (ip), vehicle: Klucel (hydroxypropylcellulose) (HPC)): 112 % of control; T/C (dose: 25.0 mg/kg/injection, schedule: Q01DX009 (ip), vehicle: Klucel (hydroxypropylcellulose) (HPC)): 100 % of control; T/C (dose: 50.0 mg/kg/injection, schedule: Q01DX009 (ip), vehicle: Klucel (hydroxypropylcellulose) (HPC)): 106 % of control; T/C [7]: 91 % of control; T/C [8]: 90 % of control

Q: `CNc1ccc(C(=O)O)cc1OC` was tested. Which T/C [4] did it give?
A: 95 % of control

Q: And the T/C [5]?
A: 91 % of control

Q: And the T/C [6]?
A: 90 % of control
